Test results from patent US20100166826A1, “BIODEGRADABLE INTRAVAGINAL DEVICES FOR DELIVERY OF THERAPEUTICS” (University of Uath Research Foundation, priority 2007, published 2010).

Assay: release of TMC120 from degradable polyurethane (FIG. 5)
Assay type: physicochemical
Conditions: period of one month; from degradable polyurethane made from terathane-co-(caprolactone), 4,4′-methylenebis-cyclohexane diisocyanate and 1,4-butanediol

SMILES: Cc1cc(C)c(Nc2ccnc(Nc3ccc(C#N)cc3)n2)c(C)c1 [TMC120, 4-[4-(mesitylamino)pyrimidin-2-ylamino)-benzonitrile]
- release profile of TMC120: sustained release profile
